Where two headings read alike, the source gives them in different places.
Columns and labels:
[1] = cited from earlier work
[2] = test system: human acute promyelocytic leukemia cell strain HL-60; assay: Differentiation induction of HL-60 cells, NBT-reducing ability; type: cell-based; details: 96 h, cultured four days, NBT reduction, read-out: ED50 (the source's name)
Experimental: Cells of human acute promyelocytic leukemia cell strain HL-60 were cultured in a CO2 incubator (5% CO2, 37° C.) using the RPMI medium containing 5% FBS. Differentiation inducing action of the compounds of the present invention on the HL-60 cells were evaluated on the basis of ability to reduce nitroblue tetrazolium (NBT) determined by observing differentiation from promyelocytic cells into granulocytic cells as an index. As positive control of retinoid compounds, retinoic acid and Am80 [4-[(5,6,7,8-tetrahydro-5,5,8,8-tetramethyl-2-naphthalenyl)carbamoyl]benzoic acid] were used. The cells that entered into the logarithmic phase and reached a substantially confluent state were centrifuged at 1000 rpm for 5 minutes, and the culture supernatant was removed. The cell pellet was suspended in fresh RPMI medium containing 5% FBS at a density of 8.0×10^4 cells/ml, then the suspension was added with a test compound dissolved in DMSO at an intended concentration, and the cells were cultured for four days and then used for the experiment. The samples were prepared so as to have the same DMSO concentration.
Cell count of the cells after the culture for a predetermined period was determined by a cell counting method using a blood cell counting chamber. The NBT-reducing ability was obtained as follows. NBT was dissolved in a phosphate buffered saline (PBS(−)) at a concentration of 0.2%, and the solution was added with an equivalent volume of the RPMI medium containing 5% FBS. The mixture was added with phorbol 12-myristate 13-acetate (tPA) at a concentration of 0.2 μM (about 200 ng) to prepare a reagent solution. The collected cells were centrifuged at 1000 rpm for 5 minutes, the supernatant was removed, and the remained cell pellet was added with the reagent solution. The mixture was incubated on a water bath at 37° C. for 20 minutes, and then NBT-reduced stained positive cells were counted by using the counting chamber to calculate a differentiation induction ratio.

| SMILES | EC50 [2] [nM] | melting point [°C] | further results |
| --- | --- | --- | --- |
| CC(C)(C)c1ccc(C(=O)Nc2ccc(C(=O)O)cc2)o1 [4-[(5-t-butylfuran-2-carbonyl)amino]benzoic acid] | – | – | differentiation induction ratio ([1]; at 3.7 μM): 26%; differentiation induction ratio ([1]; at 19 μM): 42%; differentiation induction ratio ([1]; at 74 μM): 60% |
| CC(C)(C)c1ccc(C(=O)Nc2ccc(C(=O)O)cc2)s1 [4-[(5-t-butylthiophene-2-carbonyl)amino]benzoic acid] | – | – | differentiation induction ([1]; at 0.22 μM): no differentiation induction; differentiation induction ratio ([1]; at 1.1 μM): 22%; differentiation induction ratio ([1]; at 5.6 μM): 23% |
| CC1(C)CCC(C)(C)c2cc(NC(=O)c3ccc(C(=O)O)cc3)ccc21 [Am80, 4-[(5,6,7,8-tetrahydro-5,5,8,8-tetramethyl-2-naphthalenyl)carbamoyl]benzoic acid, reference compound] | 1.6 | – | – |
| CC(C)c1cc(C(=O)Nc2ccc(C(=O)O)cc2)oc1C(C)C [Compound 1, 4-[(4,5-Diisopropylfuran-2-carbonyl)amino]benzoic acid] | 1.1 | 120 to 121 | – |
| CC(C)c1cc(C(=O)Nc2ccc(OCC(=O)O)cc2)oc1C(C)C [Compound 3, 4-[(4,5-Diisopropylfuran-2-carbonyl)amino]phenyloxyacetic acid] | – | 83 to 85 | – |
| CC(C)c1cc(C(=O)Nc2ccc(CC(=O)O)cc2)oc1C(C)C [Compound 4, 4-[(4,5-Diisopropylfuran-2-carbonyl)amino]phenylacetic acid] | – | 154 to 156 | – |
| CC(C)c1cc(C(=O)Nc2cccc(C(=O)O)c2)oc1C(C)C [Compound 5, 3-[(4,5-Diisopropylfuran-2-carbonyl)amino]benzoic acid] | – | 243.5 to 245 | – |
| CC(C)c1cc(C(=O)Nc2ccc(CCC(=O)O)cc2)oc1C(C)C [Compound 6, 3-[4-[(4,5-Diisopropylfuran-2-carbonyl)amino]phenyl]propionic acid] | > 1000 | 139 to 141 | – |
| CC(C)c1cc(C(=O)Nc2ccc(C(=O)O)nc2)oc1C(C)C [Compound 7, 5-[(4,5-Diisopropylfuran-2-carbonyl)amino]pyridine-2-carboxylic acid] | 13.1 | 106 to 107.5 | – |
| CC(C)c1cc(C(=O)Nc2ccc(C(=O)O)cn2)oc1C(C)C [Compound 8, 6-[(4,5-Diisopropylfuran-2-carbonyl)amino]pyridine-3-carboxylic acid] | 1.9 | 278 to 279 | – |
| CC(C)c1cc(C(=O)Nc2ccc(C(=O)O)s2)oc1C(C)C [Compound 9, 5-[(4,5-Diisopropylfuran-2-carbonyl)amino]thiophene-2-carboxylic acid] | 72.9 | 227 to 228.5 | – |
| CC(C)c1cc(/C=C/C(=O)Nc2ccc(C(=O)O)cc2)oc1C(C)C [Compound 10, 4-[[3-(4,5-Diisopropyl-2-furanyl)acryloyl]amino]benzoic acid] | 166 | 131 to 133 | – |
| C/C(=C\C(=O)Nc1ccc(C(=O)O)cc1)c1cc(C(C)C)c(C(C)C)o1 [Compound 11, 4-[[3-(4,5-Diisopropyl-2-furanyl)crotonoyl]amino]benzoic acid] | 74.7 | 232.5 to 235 | – |
| CC(C)c1cc(C(=O)Nc2ccc(C(=O)O)cc2)[nH]c1C(C)C [Compound 12, 4-[(4,5-Diisopropylpyrrole-2-carbonyl)amino]benzoic acid] | 40.4 | 230 to 230.5 | – |
| CC(C)c1cc(C(C)C)c(C(=O)Nc2ccc(C(=O)O)cc2)[nH]1 [Compound 13, 4-[(3,5-Diisopropylpyrrole-2-carbonyl)amino]benzoic acid] | – | 225 to 226 | – |

Further lines, with some results ahead:

| EC50 [2] [nM] | melting point [°C] | SMILES | further results |
| --- | --- | --- | --- |
| > 1000 | > 300 | CC(C)c1[nH]c(C(=O)Nc2ccc(C(=O)O)cc2)c(C(C)C)c1C(C)C [Compound 14, 4-[(3,4,5-Triisopropylpyrrole-2-carbonyl)amino]benzoic acid] | – |
| 1.8 | 219 to 221 | CC(C)c1cc(C(=O)Nc2ccc(C(=O)O)cc2)sc1C(C)C [Compound 15, 4-[(4,5-Diisopropylthiophene-2-carbonyl)amino]benzoic acid] | – |
| – | 216 to 217 | CC(C)c1cc(C(=O)Nc2ccc(C(=O)O)nc2)sc1C(C)C [Compound 16, 5-[(4,5-Diisopropylthiophene-2-carbonyl)amino]pyridine-2-carboxylic acid] | – |
| – | > 300 | CC(C)c1cc(C(=O)Nc2ccc(C(=O)O)cn2)sc1C(C)C [Compound 17, 6-[(4,5-Diisopropylthiophene-2-carbonyl)amino]pyridine-3-carboxylic acid] | – |
| – | 151 to 152 | CC(C)c1cc(C(=O)Nc2ccc(C(=O)O)c(F)c2)oc1C(C)C [Compound 22, 2-Fluoro-4-[(4,5-diisopropylfuran-2-carbonyl)amino]benzoic acid] | – |
| – | 152 to 153 | CC(C)c1cc(C(=O)Nc2ccc(C(=O)O)c(Cl)c2)oc1C(C)C [Compound 23, 2-Chloro-4-[(4,5-diisopropylfuran-2-carbonyl)amino]benzoic acid] | – |
| – | 179 to 180 | CC(C)c1cc(C(=O)Nc2ccc(C(=O)O)c(O)c2)oc1C(C)C [Compound 24, 2-Hydroxy-4-[(4,5-diisopropylfuran-2-carbonyl)amino]benzoic acid] | – |
| – | 136 to 137 | COc1cc(NC(=O)c2cc(C(C)C)c(C(C)C)o2)ccc1C(=O)O [Compound 25, 2-Methoxy-4-[(4,5-diisopropylfuran-2-carbonyl)amino]benzoic acid] | – |
| – | 213 to 214 | CC(C)c1cc(/C=C/C(=O)N(C)c2ccc(C(=O)O)cc2)oc1C(C)C [Compound 27, 4-[[3-(4,5-Diisopropyl-2-furanyl)acryloyl]methylamino]benzoic acid] | – |
| – | 220.5 to 221.5 | CC(C)c1cc(/C=C/C(=O)Nc2cccc(C(=O)O)c2)oc1C(C)C [Compound 28, 3-[[3-(4,5-Diisopropyl-2-furanyl)acryloyl]amino]benzoic acid] | – |
| – | 187.5 to 189 | CC(C)c1cc(/C=C/C(=O)N(C)c2cccc(C(=O)O)c2)oc1C(C)C [Compound 29, 3-[[3-(4,5-Diisopropyl-2-furanyl)acryloyl]methylamino]benzoic acid] | – |
| – | 169 to 171 | CC(C)c1cc(C(=O)Nc2ccc(C(=O)O)o2)oc1C(C)C [Compound 35, 5-[(4,5-Diisopropylfuran-2-carbonyl)amino]-2-furancarboxylic acid] | – |
| – | 240 to 243 | CC(C)c1cc(C(=O)Nc2ccc3[nH]c(C(=O)O)cc3c2)oc1C(C)C [Compound 36, 5-[(4,5-Diisopropylfuran-2-carbonyl)amino]-2-indolecarboxylic acid] | – |
| – | 133 to 135 | CC(C)c1cc(C(=O)Nc2ccc(C(=O)O)c(F)c2)sc1C(C)C [Compound 39, 2-Fluoro-4-[(4,5-diisopropylthiophene-2-carbonyl)amino]benzoic acid] | – |
| – | 222 to 223 | CC(C)c1cc(C(=O)Nc2ccc(C(=O)O)c(Cl)c2)sc1C(C)C [Compound 40, 2-Chloro-4-[(4,5-diisopropylthiophene-2-carbonyl)amino]benzoic acid] | – |
| – | 129 to 130 | CC(C)c1cc(C(=O)Nc2ccc(C(=O)O)c(O)c2)sc1C(C)C [Compound 41, 2-Hydroxy-4-[(4,5-diisopropylthiophene-2-carbonyl)amino]benzoic acid] | – |
| – | 213 to 214 | COc1cc(NC(=O)c2cc(C(C)C)c(C(C)C)s2)ccc1C(=O)O [Compound 42, 2-Methoxy-4-[(4,5-diisopropylthiophene-2-carbonyl)amino]benzoic acid] | – |
| – | 218 to 219 | CC(C)c1cc(C(=O)Nc2cc(F)c(C(=O)O)c(F)c2)sc1C(C)C [Compound 43, 2,6-Difluoro-4-[(4,5-diisopropylthiophene-2-carbonyl)amino]benzoic acid] | – |
